The values that follow come from patent US11503826B2, “Low volatility auxin herbicide formulations” (priority 2009, dated 2022).

Structures are written as SMILES. Where a name gives a salt, the structure may show the parent alone.

Data set [1] is described as follows: Aqueous solubility of dicamba acid and dicamba salts. The conditions noted are these: for Comments (crystal formation): dicamba salt solutions; for solubility 20° C. a.e. / solubility 20° C. a.i.: equilibrated 5 to 7 days at 20° C.; for solubility 20° C. a.e.: 0.45 micron filter, HPLC; for aqueous solubility wt % a.i. @20° C.: dicamba salts. An excerpt:
The solution was then passed through a 0.45 micron filter and assayed by HPLC for soluble dicamba.

Data set [2] is described as follows: Tank mix compatibility of dicamba salts with potassium glyphosate. In kind it is physicochemical. Conditions: for Comment: dicamba salt solution added to […] Roundup POWERMAX solution; for g to crystals: grams dicamba a.e. (35.8% a.e. salt solution) added to […] Roundup POWERMAX solution to induce crystallization or precipitation. The source says:
The weight of the dicamba solution that caused precipitation was noted. The results are reported in Table 12a below where “salt” refers to the dicamba salt and “g to crystals” refers to the total amount of grams of dicamba a.e. that were required to induce crystallization or precipitation of crystals.

The nature of data set [3]: Distillation volatility: dicamba in distillate by HPLC/MS. The data set is classed as physicochemical. Conditions: for ppm Dicamba in distillate: Table 4h summary, 5% a.e. salt solution. As for the experimental part:
The pH was measured on a standard Orion Model 320 pH meter of each neat solution.
Simple distillation using a short path still was used to collect the water distillate containing the dicamba in the vapor phase of the salt solutions. A 50 mL distillation flask was used. The distillation receiver was a “cow” type with four 2 mL graduated sections. The solutions were heated at the 30% setting of the GlassCol heating unit and the boiling point of each distillation was noted. The first 2 ml of distillate was collected, and the receiver rotated to avoid collection of any further distillate in that section as the distillation flask cooled. The 2 mL sample was quantitatively transferred by pipette to HPLC vials for later analysis. Between each distillation the distillation apparatus was washed with 10 volumes of tap water, 10 volumes of distilled water, rinsed with acetone, and dried in a 60° C. oven. Each distillation was run in triplicate.
The distillate was collected and analyzed for dicamba concentration using HPLC/Mass Spectroscopy (MS). The HPLC column was an Agilent Zorbax Eclipse XDB-C8, 4.6×150 mm, 5u, PN 993967-90. Mobile phase A was 0.1% formic acid in D.I. water. Mobile phase B was 0.1% formic acid in acetonitrile. A flow rate of 1.2 mL/min was used and an injection volume of 5, 10, 15 or 25 ul was used depending on the dicamba level in the sample. The following gradient was used: […]
The MS parameters were as follows: Type SIR; ES-ion mode; 0.05 second inter channel delay; 0.05 second interscan time; 0.5 span (Da); 10 minutes elapsed time; and 6-6000 ppb calibration range. […] Channel 2 mass was 177 (Da); Dwell was 0.25(s); Cone(V)=tune and; 0.05(s) delay.

The format of data set [4] is physicochemical. As to the method:
In a further set of experiments, measurements of dicamba concentration in the gas phase (air) above 38.5 wt % a.e. solutions of various dicamba salts was measured. 5 mL of each sample of dicamba was placed into a 50 mL plastic centrifuge tube with four holes approximately ⅛ in diameter drilled into the tube at the 10 mL line. A 22 mm×30 mm PUF (SKC ct. #226-124) was placed into a glass tube of app. 20 mm diameter with parafilm wrapped around the outside to obtain a snug fit into the top of the centrifuge tube. A hose was connected to the other end of the glass tube leading to a vacuum line. The air flow was regulated to app. 2 L/min using a flow controller (about 0.4 L air/min-mL sample). Air was pulled through the tube at […] for approximately 1 day. Note that the air conditions of flow rate, temperature, pressure and composition (e.g., relative humidity) are not narrowly critical as long as the various samples are analyzed under similar conditions. For instance, air at from about 5° C. to about 40° C., from about 0.5 to about 1.5 bar pressure, from about 0% to about 95% relative humidity, and at a flow rate of from about 0.1 to 10 L/min-mL sample could be suitably used for volatility analysis. The PUF was removed from the glass tube, extracted with 20 mL methanol and the resulting solution analyzed for dicamba concentration by LC-MS. The results are shown in Table 4i below where “wt % a.e.” refers to the dicamba concentration, “μg/mL” refers to the dicamba concentration in the distillate, “μg dicamba” refers to the total dicamba extracted from the PUF by 20 mL methanol, and “ng/L air” and “moles/L air” refer to the dicamba concentration in the gas phase above the solution.

The subject of another data set is eyes of rabbit. As for the experimental part:
Eye irritation measurement can be done according to the methods provided in U.S. Environmental Protection Agency Office of Prevention, Pesticides and Toxic Substances, Health Effects Test Guidelines (for example, OPPTS 870.2400 Acute Eye Irritation, August 1998).
The eye irritation potential of an aqueous formulation of the present invention was evaluated. […] Eye irritation testing was done according to the methods provided in U.S. Environmental Protection Agency Office of Prevention, Pesticides and Toxic Substances, Health Effects Test Guidelines: OPPTS 870.2400 Acute Eye Irritation. The eyes of 3 rabbit animals were treated with the formulation and were scored for effects on the cornea, iris, and conjunctivae (redness, swelling and discharge).

Setting [5] is: Table 10a, dicamba salt, acid equivalent.
Setting [6] is: 38.5 wt % a.e. solutions (Table 4i).
[7] abbreviates: 5 mL sample, air pulled through tube over PUF approximately 1 day, wt % a.e.: salts 35.8, BANVEL 40, acid 99.

Consider `NCCOCCO` [DGA], for which, in data set [1] (Table 10a), the “Comments (crystal formation)” value is given as “Crystals formed slowly”. The “solubility 20° C. a.e.” value in data set [1] (setting [5]) is <50 wt %. Moreover, the Comment result in data set [2] is on record as “CLARITY-clear solution with no”. Moreover, in data set [2], the g to crystals was >17 g. Moreover, the “Mean Dicamba in Distillate” value in data set [3] (1% a.e. dicamba, solution pH 4.23) amounted to 0.46 ppm; in data set [3] (1% a.e. dicamba, solution pH 6.48), 0.18 ppm; in data set [3] (1% a.e. dicamba, solution pH 8.24), 0.13 ppm; in data set [3] (1% a.e. dicamba, solution pH 8.88), 0.12 ppm; in data set [3] (2% a.e. dicamba, solution pH 4.17) it was 1.10 ppm; in data set [3] (2% a.e. dicamba, solution pH 6.44) it was 0.31 ppm. For the same molecule, the “Mean Dicamba in Distillate” value in data set [3] (2% a.e. dicamba, solution pH 8.22) turned out to be 0.28 ppm; in data set [3] (2% a.e. dicamba, solution pH 8.92), 0.19 ppm; in data set [3] (5% a.e. dicamba, solution pH 4.57) it was 2.11 ppm; in data set [3] (5% a.e. dicamba, solution pH 6.35), 0.75 ppm; in data set [3] (5% a.e. dicamba, solution pH 8.26), 0.58 ppm; in data set [3] (5% a.e. dicamba, solution pH 9.03), 0.32 ppm. For the same molecule, the figures for the “ppm Dicamba in distillate” value in data set [3] (pH 6.35) and in data set [3] (pH 8.26) were 0.8 ppm and 0.6 ppm, respectively.
`COc1c(Cl)ccc(Cl)c1C(=O)O.NCCO` [Dicamba MEA salt]: the “aqueous solubility wt % a.e. @20° C.” value in data set [1] (Table 10b, second experiment, dicamba acid and salts) is on record as 66.1 wt % a.e. The “aqueous solubility wt % a.i. @20° C.” value in data set [1] (Table 10b, second experiment) is 84.4 wt % a.i. Also, in data set [1] (solubility experiment, Example 10), the “crystal formation from concentrated salt solution” value was “did not form crystals”. Besides, in data set [4] (setting [6]), the “dicamba concentration in the gas phase above the solution, comparison” value is “lower than the acid or the sodium, potassium and DMA salts”; the “gas concentration, times less than the commercial product BANVEL” value is recorded as ~20 times. For the same molecule, in the data set with eyes of rabbit (61 wt % a.e., pH 8.5), the “time after treatment at which all eyes were free of positive scores” value amounted to 7 days and the “time by which all eyes were free of all irritation” value is ≤ 10 days. The “eye irritation rating in words” value in the data set with eyes of rabbit (Example 16: 61 wt % a.e. aqueous MEA dicamba, pH 8.5, 3 rabbits, b51: concentrate formulations at pH about 8) was “moderately irritating”. Also, in the data set with eyes of rabbit (within 24 hours after treatment, 61 wt % a.e., pH 8.5), the “ocular findings in all treated eyes” value is “corneal opacity, iritis and conjunctivitis”.
For `COc1c(Cl)ccc(Cl)c1C(=O)O` [Dicamba acid, 3,6-dichloro-2-methoxybenzoic acid], in data set [1] (listed as acid), the “aqueous solubility Approximate g a.e./L @20° C.” value amounted to 4.5 g a.e./L and the “aqueous solubility wt % a.e. @20° C.” value is listed as 0.4 wt % a.e. Moreover, the “aqueous solubility wt % a.e. @20° C.” value in data set [1] (Table 10b, second experiment, dicamba acid and salts, listed as acid) amounted to 0.4 wt % a.e. Moreover, in data set [4] (setting [7]), the “dicamba” value turned out to be 15.3 µg/mL; the “dicamba concentration in gas phase, moles/L air” value was 1.92 × 10^−10 moles/L air; the “dicamba concentration in gas phase, ng/L air” value worked out at 42.4 ng/L air; the μg dicamba was 305.4 µg.
On to `COc1c(Cl)ccc(Cl)c1C(=O)O` [Dicamba sodium salt, reference compound], for which the “aqueous solubility Approximate g a.e./L @20° C.” value in data set [1] (listed as sodium salt) stood at 364 g a.e./L. Further, the “aqueous solubility wt % a.e. @20° C.” value in data set [1] (listed as sodium salt) is reported as 36.3 wt % a.e; in data set [1] (Table 10b, second experiment, dicamba acid and salts, listed as sodium salt), 36.3 wt % a.e. Moreover, the “crystal formation on drying on a glass surface” value in data set [1] (Example 10) was “formed crystals very readily”. Also, in data set [1] (Table 10a, listed as Na), the “Comments (crystal formation)” value is “Crystals form easily”. In data set [1] (Table 10a, dicamba salt, equilibrated 5 to 7 days at 0° C., acid equivalent, listed as Na), the “solubility 0° C. a.e.” value amounted to 33 wt %. In data set [1] (Table 10a, dicamba salt, equilibrated 5 to 7 days at 0° C., active ingredient, listed as Na), the “solubility 0° C. a.i.” value was found to be 36.3 wt %. The “solubility 20° C. a.e.” value in data set [1] (Table 10a, dicamba salt, acid equivalent, listed as Na) was determined as 36.3 wt %. Further, the “solubility 20° C. a.i.” value in data set [1] (Table 10a, dicamba salt, active ingredient, listed as Na) is 40.3 wt %. Also, the “aqueous solubility wt % a.i. @20° C.” value in data set [1] (Table 10b, second experiment, listed as sodium salt) is 40.3 wt % a.i. For the same molecule, the “crystallization in the presence of potassium glyphosate” value in data set [2] (35.8% a.e. dicamba salt solution added to […] Roundup POWERMAX solution) was “induced crystallization”. Further, in data set [2], the g to crystals is reported as 13.6 g. Besides, the “Mean Dicamba in Distillate” value is listed as 3.42 ppm in data set [3] (1% a.e. dicamba, solution pH 3.31); 0.70 ppm in data set [3] (1% a.e. dicamba, solution pH 4.25); 0.13 ppm in data set [3] (1% a.e. dicamba, solution pH 6.19); 0.09 ppm in data set [3] (1% a.e. dicamba, solution pH 9.82); 0.06 ppm in data set [3] (1% a.e. dicamba, solution pH 11.15); 5.74 ppm in data set [3] (2% a.e. dicamba, solution pH 3.33). For the same molecule, the “Mean Dicamba in Distillate” value in data set [3] (2% a.e. dicamba, solution pH 4.29) is 1.39 ppm; in data set [3] (2% a.e. dicamba, solution pH 6.28), 0.32 ppm; in data set [3] (2% a.e. dicamba, solution pH 9.93), 0.16 ppm; in data set [3] (2% a.e. dicamba, solution pH 11.50) it was 0.15 ppm; in data set [3] (5% a.e. dicamba, solution pH 3.36), 11.57 ppm; in data set [3] (5% a.e. dicamba, solution pH 4.34) it was 2.36 ppm. Further, the “Mean Dicamba in Distillate” value in data set [3] (5% a.e. dicamba, solution pH 6.32) is listed as 0.77 ppm; in data set [3] (5% a.e. dicamba, solution pH 10.36), 0.45 ppm; in data set [3] (5% a.e. dicamba, solution pH 12.15) it was 0.22 ppm. Also, the “ppm Dicamba in distillate” value in data set [3] (pH 6.32) was 0.8 ppm.
Consider `NCCO` [MEA], for which, in data set [1] (setting [5]), the “solubility 20° C. a.e.” value is >71.9 wt %. Moreover, the “solubility 20° C. a.i.” value in data set [1] (Table 10a, dicamba salt, active ingredient) is >91.8 wt %. In data set [2], the Comment entry is given as “Clear solution, no precipitate” and the g to crystals is >34.2 g. The “ppm Dicamba in distillate” value in data set [3] (pH 6.87) is listed as 0.5 ppm. Besides, the “ppm Dicamba in distillate” value in data set [3] (pH 8.03) was determined as 0.3 ppm.
